Values of other authors, collected in US20250170254A1, “Subdermal Implant for Sustained Drug Delivery” (OAK CREST INSTITUTE OF SCIENCE, priority 2022, published 2025).

Tests used:
HIV = conditions: four times the protein adjusted IC90 from non-human primate efficacy studies
HIV-1 [1] = conditions: long-acting injectable formulation
[2] = 600 mg every 8 weeks, intramuscular long-acting formulation
HIV-1 [3] = tested on: HIV-1
[4] = in vivo
HIV-1 [5] = conditions: MDTG versus DTG

C[C@H]1CO[C@@H]2Cn3cc(C(=O)NCc4ccc(F)cc4F)c(=O)c(O)c3C(=O)N12 [CAB, cabotegravir]
target steady state plasma concentration (four times PA-IC90) (HIV): 0.66 µg/mL
efficacy versus daily oral TDF-FTC in prevention of HIV-1 (HIV-1 [1]): superiority
participants with trough concentrations above 1×PA-IC90 [2]: ≥ 95%
participants with trough concentrations above 4×PA-IC90 [2]: ≥ 80%

C[C@@H]1CCO[C@H]2Cn3cc(C(=O)NCc4ccc(F)cc4F)c(=O)c(O)c3C(=O)N12 [DTG, dolutegravir]
IC50 (HIV-1 [3]; in vitro against HIV-1, PBMCs, read-out: IC50 in peripheral blood mononuclear cells (PBMCs)): 0.51 nM
protein-adjusted IC90 (PA-IC90) (HIV-1 [3]; in vitro against HIV-1, protein-adjusted, mass units): 0.064 µg/mL
IC90 (HIV-1 [3]; in vitro against HIV-1, protein-adjusted, read-out: protein-adjusted IC90 (PA-IC90)): 150 nM
systemic half-life [4]: 12 to 15 h

CCCCCCCCCCCCCC(=O)Oc1c2n(cc(C(=O)NCc3ccc(F)cc3F)c1=O)C[C@@H]1OCC[C@@H](C)N1C2=O [MDTG]
IC50 against HIV-1 compared with DTG (HIV-1 [5]): not statistically different
